Reference: PubChem BioAssay AID1259407 (Chemical Carcinogenesis Research Information System (CCRIS), 2018)
The source made the active and inactive calls. How the calls were made is not given here.

System: CCRIS mutagenicity, Ames/micronucleus/aberration tests
Test: CCRIS mutagenicity studies
Source text: The CCRIS database contains chemical records with carcinogenicity, mutagenicity, tumor promotion, and tumor inhibition test results. It was developed by the National Cancer Institute (NCI). Data are derived from studies cited in primary journals, current awareness tools, NCI reports, and other sources. Test results have been reviewed by experts in carcinogenesis and mutagenesis.
CCRIS provides historical information from the years 1985 - 2011. It is no longer updated.
This is an archive assay for CCRIS mutagenicity studies.

Which results are given for `CC(=O)Oc1ccccc1C(=O)O`?
mutagenic call (End Point: IN VITRO MICRONUCLEUS, Test System: CHL/IU CELLS, Metabolic Activation: NONE): active; positive; mutagenic call (End Point: IN VITRO MICRONUCLEUS, Test System: RAT KIDNEY FIBROBLAST NRK-49F, Metabolic Activation: NONE): inactive; negative; mutagenic call (Test System: AMES SALMONELLA TYPHIMURIUM, Strain/Indicator: TA97, Metabolic Activation: HAMSTER, LIVER, S-9, AROCLOR 1254 (10%), Method: PREINCUBATION): inactive; negative; mutagenic call (Test System: AMES SALMONELLA TYPHIMURIUM, Strain/Indicator: TA97, Metabolic Activation: HAMSTER, LIVER, S-9, AROCLOR 1254 (30%), Method: PREINCUBATION): inactive; negative; mutagenic call (Test System: AMES SALMONELLA TYPHIMURIUM, Strain/Indicator: TA97, Metabolic Activation: NONE, Method: PREINCUBATION): inactive; negative; mutagenic call (Test System: AMES SALMONELLA TYPHIMURIUM, Strain/Indicator: TA97, Metabolic Activation: RAT, LIVER, S-9, AROCLOR 1254 (10%), Method: PREINCUBATION): inactive; negative; mutagenic call (Test System: AMES SALMONELLA TYPHIMURIUM, Strain/Indicator: TA97, Metabolic Activation: RAT, LIVER, S-9, AROCLOR 1254 (30%), Method: PREINCUBATION): inactive; negative; mutagenic call (Test System: AMES SALMONELLA TYPHIMURIUM, Strain/Indicator: TA98, Metabolic Activation: GUINEA PIG, LIVER, S-9, PCB, Method: PREINCUBATION): inactive; negative; mutagenic call (Test System: AMES SALMONELLA TYPHIMURIUM, Strain/Indicator: TA98, Metabolic Activation: HAMSTER, LIVER, S-9, AROCLOR 1254 (10%), Method: PREINCUBATION): inactive; negative; mutagenic call (Test System: AMES SALMONELLA TYPHIMURIUM, Strain/Indicator: TA98, Metabolic Activation: HAMSTER, LIVER, S-9, AROCLOR 1254 (30%), Method: PREINCUBATION): inactive; negative; mutagenic call (Test System: AMES SALMONELLA TYPHIMURIUM, Strain/Indicator: TA98, Metabolic Activation: HAMSTER, LIVER, S-9, AROCLOR 1254, Method: STANDARD PLATE): inactive; negative; mutagenic call (Test System: AMES SALMONELLA TYPHIMURIUM, Strain/Indicator: TA98, Metabolic Activation: HAMSTER, LIVER, S-9, PCB, Method: PREINCUBATION): inactive; negative; mutagenic call (Test System: AMES SALMONELLA TYPHIMURIUM, Strain/Indicator: TA98, Metabolic Activation: MOUSE, LIVER, S-9, AROCLOR 1254, Method: STANDARD PLATE): inactive; negative; mutagenic call (Test System: AMES SALMONELLA TYPHIMURIUM, Strain/Indicator: TA98, Metabolic Activation: MOUSE, LIVER, S-9, PCB, Method: PREINCUBATION): inactive; negative; mutagenic call (Test System: AMES SALMONELLA TYPHIMURIUM, Strain/Indicator: TA98, Metabolic Activation: NONE, Method: PREINCUBATION): inactive; negative; mutagenic call (Test System: AMES SALMONELLA TYPHIMURIUM, Strain/Indicator: TA98, Metabolic Activation: NONE, Method: STANDARD PLATE): inactive; negative; mutagenic call (Test System: AMES SALMONELLA TYPHIMURIUM, Strain/Indicator: TA98, Metabolic Activation: RAT, LIVER, S-9, AROCLOR 1254 (10%), Method: PREINCUBATION): inactive; negative; mutagenic call (Test System: AMES SALMONELLA TYPHIMURIUM, Strain/Indicator: TA98, Metabolic Activation: RAT, LIVER, S-9, AROCLOR 1254 (30%), Method: PREINCUBATION): inactive; negative; mutagenic call (Test System: AMES SALMONELLA TYPHIMURIUM, Strain/Indicator: TA98, Metabolic Activation: RAT, LIVER, S-9, AROCLOR 1254, Method: STANDARD PLATE): inactive; negative; mutagenic call (Test System: AMES SALMONELLA TYPHIMURIUM, Strain/Indicator: TA98, Metabolic Activation: RAT, LIVER, S-9, PCB, Method: PREINCUBATION): inactive; negative; mutagenic call (Test System: AMES SALMONELLA TYPHIMURIUM, Strain/Indicator: TA98, Metabolic Activation: RAT, LIVER, S-9, PCB, Method: STANDARD PLATE): inactive; negative; mutagenic call (Test System: AMES SALMONELLA TYPHIMURIUM, Strain/Indicator: TA100, Metabolic Activation: GUINEA PIG, LIVER, S-9, PCB, Method: PREINCUBATION): inactive; negative; mutagenic call (Test System: AMES SALMONELLA TYPHIMURIUM, Strain/Indicator: TA100, Metabolic Activation: HAMSTER, LIVER, S-9, AROCLOR 1254 (10%), Method: PREINCUBATION): inactive; negative; mutagenic call (Test System: AMES SALMONELLA TYPHIMURIUM, Strain/Indicator: TA100, Metabolic Activation: HAMSTER, LIVER, S-9, AROCLOR 1254 (30%), Method: PREINCUBATION): inactive; negative; mutagenic call (Test System: AMES SALMONELLA TYPHIMURIUM, Strain/Indicator: TA100, Metabolic Activation: HAMSTER, LIVER, S-9, AROCLOR 1254, Method: STANDARD PLATE): inactive; negative; mutagenic call (Test System: AMES SALMONELLA TYPHIMURIUM, Strain/Indicator: TA100, Metabolic Activation: HAMSTER, LIVER, S-9, PCB, Method: PREINCUBATION): inactive; negative; mutagenic call (Test System: AMES SALMONELLA TYPHIMURIUM, Strain/Indicator: TA100, Metabolic Activation: MOUSE, LIVER, S-9, AROCLOR 1254, Method: STANDARD PLATE): inactive; negative; mutagenic call (Test System: AMES SALMONELLA TYPHIMURIUM, Strain/Indicator: TA100, Metabolic Activation: MOUSE, LIVER, S-9, PCB, Method: PREINCUBATION): inactive; negative; mutagenic call (Test System: AMES SALMONELLA TYPHIMURIUM, Strain/Indicator: TA100, Metabolic Activation: NONE, Method: PREINCUBATION): inactive; negative; mutagenic call (Test System: AMES SALMONELLA TYPHIMURIUM, Strain/Indicator: TA100, Metabolic Activation: NONE, Method: STANDARD PLATE): inactive; negative; mutagenic call (Test System: AMES SALMONELLA TYPHIMURIUM, Strain/Indicator: TA100, Metabolic Activation: RAT, LIVER, S-9, AROCLOR 1254 (10%), Method: PREINCUBATION): inactive; negative; mutagenic call (Test System: AMES SALMONELLA TYPHIMURIUM, Strain/Indicator: TA100, Metabolic Activation: RAT, LIVER, S-9, AROCLOR 1254 (30%), Method: PREINCUBATION): inactive; negative; mutagenic call (Test System: AMES SALMONELLA TYPHIMURIUM, Strain/Indicator: TA100, Metabolic Activation: RAT, LIVER, S-9, AROCLOR 1254, Method: STANDARD PLATE): inactive; negative; mutagenic call (Test System: AMES SALMONELLA TYPHIMURIUM, Strain/Indicator: TA100, Metabolic Activation: RAT, LIVER, S-9, PCB, Method: PREINCUBATION): inactive; negative; mutagenic call (Test System: AMES SALMONELLA TYPHIMURIUM, Strain/Indicator: TA100, Metabolic Activation: RAT, LIVER, S-9, PCB, Method: STANDARD PLATE): inactive; negative; mutagenic call (Test System: AMES SALMONELLA TYPHIMURIUM, Strain/Indicator: TA1535, Metabolic Activation: HAMSTER, LIVER, S-9, AROCLOR 1254 (10%), Method: PREINCUBATION): inactive; negative; mutagenic call (Test System: AMES SALMONELLA TYPHIMURIUM, Strain/Indicator: TA1535, Metabolic Activation: HAMSTER, LIVER, S-9, AROCLOR 1254 (30%), Method: PREINCUBATION): inactive; negative; mutagenic call (Test System: AMES SALMONELLA TYPHIMURIUM, Strain/Indicator: TA1535, Metabolic Activation: HAMSTER, LIVER, S-9, AROCLOR 1254, Method: STANDARD PLATE): inactive; negative; mutagenic call (Test System: AMES SALMONELLA TYPHIMURIUM, Strain/Indicator: TA1535, Metabolic Activation: MOUSE, LIVER, S-9, AROCLOR 1254, Method: STANDARD PLATE): inactive; negative; mutagenic call (Test System: AMES SALMONELLA TYPHIMURIUM, Strain/Indicator: TA1535, Metabolic Activation: NONE, Method: PREINCUBATION): inactive; negative; mutagenic call (Test System: AMES SALMONELLA TYPHIMURIUM, Strain/Indicator: TA1535, Metabolic Activation: NONE, Method: STANDARD PLATE): inactive; negative; mutagenic call (Test System: AMES SALMONELLA TYPHIMURIUM, Strain/Indicator: TA1535, Metabolic Activation: RAT, LIVER, S-9, AROCLOR 1254 (10%), Method: PREINCUBATION): inactive; negative; mutagenic call (Test System: AMES SALMONELLA TYPHIMURIUM, Strain/Indicator: TA1535, Metabolic Activation: RAT, LIVER, S-9, AROCLOR 1254 (30%), Method: PREINCUBATION): inactive; negative; mutagenic call (Test System: AMES SALMONELLA TYPHIMURIUM, Strain/Indicator: TA1535, Metabolic Activation: RAT, LIVER, S-9, AROCLOR 1254, Method: STANDARD PLATE): inactive; negative; mutagenic call (Test System: AMES SALMONELLA TYPHIMURIUM, Strain/Indicator: TA1537, Metabolic Activation: HAMSTER, LIVER, S-9, AROCLOR 1254, Method: STANDARD PLATE): inactive; negative; mutagenic call (Test System: AMES SALMONELLA TYPHIMURIUM, Strain/Indicator: TA1537, Metabolic Activation: MOUSE, LIVER, S-9, AROCLOR 1254, Method: STANDARD PLATE): inactive; negative; mutagenic call (Test System: AMES SALMONELLA TYPHIMURIUM, Strain/Indicator: TA1537, Metabolic Activation: NONE, Method: STANDARD PLATE): inactive; negative; mutagenic call (Test System: AMES SALMONELLA TYPHIMURIUM, Strain/Indicator: TA1537, Metabolic Activation: RAT, LIVER, S-9, AROCLOR 1254, Method: STANDARD PLATE): inactive; negative; mutagenic call (Test System: AMES SALMONELLA TYPHIMURIUM, Strain/Indicator: TA1537, Metabolic Activation: RAT, LIVER, S-9, PCB, Method: STANDARD PLATE): inactive; negative; mutagenic call (Test System: AMES SALMONELLA TYPHIMURIUM, Strain/Indicator: TA1538, Metabolic Activation: HAMSTER, LIVER, S-9, AROCLOR 1254, Method: STANDARD PLATE): inactive; negative; mutagenic call (Test System: AMES SALMONELLA TYPHIMURIUM, Strain/Indicator: TA1538, Metabolic Activation: MOUSE, LIVER, S-9, AROCLOR 1254, Method: STANDARD PLATE): inactive; negative; mutagenic call (Test System: AMES SALMONELLA TYPHIMURIUM, Strain/Indicator: TA1538, Metabolic Activation: NONE, Method: STANDARD PLATE): inactive; negative; mutagenic call (Test System: AMES SALMONELLA TYPHIMURIUM, Strain/Indicator: TA1538, Metabolic Activation: RAT, LIVER, S-9, AROCLOR 1254, Method: STANDARD PLATE): inactive; negative; mutagenic call (Test System: AMES SALMONELLA TYPHIMURIUM, Strain/Indicator: TA1538, Metabolic Activation: RAT, LIVER, S-9, PCB, Method: STANDARD PLATE): inactive; negative; mutagenic call (Test System: E. COLI, Strain/Indicator: WP2 UVRA, Metabolic Activation: HAMSTER, LIVER, S-9, AROCLOR 1254, Method: STANDARD PLATE): inactive; negative; mutagenic call (Test System: E. COLI, Strain/Indicator: WP2 UVRA, Metabolic Activation: HAMSTER, LIVER, S-9, Method: STANDARD PLATE): inactive; negative; mutagenic call (Test System: E. COLI, Strain/Indicator: WP2 UVRA, Metabolic Activation: MOUSE, LIVER, S-9, AROCLOR 1254, Method: STANDARD PLATE): inactive; negative; mutagenic call (Test System: E. COLI, Strain/Indicator: WP2 UVRA, Metabolic Activation: MOUSE, LIVER, S-9, Method: STANDARD PLATE): inactive; negative; mutagenic call (Test System: E. COLI, Strain/Indicator: WP2 UVRA, Metabolic Activation: NONE, Method: STANDARD PLATE): inactive; negative; mutagenic call (Test System: E. COLI, Strain/Indicator: WP2 UVRA, Metabolic Activation: RAT, LIVER, S-9, AROCLOR 1254, Method: STANDARD PLATE): inactive; negative; mutagenic call (Test System: E. COLI, Strain/Indicator: WP2 UVRA, Metabolic Activation: RAT, LIVER, S-9, PCB, Method: STANDARD PLATE): inactive; negative; mutagenic call (Test System: E. COLI, Strain/Indicator: WP2 UVRA, Metabolic Activation: RAT, LIVER, S-9, Method: STANDARD PLATE): inactive; negative
